# Results published in publication PMC4850295, “Using a Genetically Encoded Sensor to Identify Inhibitors of Toxoplasma gondii Ca^2+ Signaling” (The Journal of Biological Chemistry, 2016).
# System: T1, GCaMP5-expressing T. gondii
# T1 construct: whole extracellular parasites expressing GCaMP5 Ca2+ sensor
# Set-up: species or system GCaMP5-expressing Toxoplasma gondii, extracellular; GCaMP5 fluorescence (cytosolic Ca2+) after 100 uM zaprinast in compound-pretreated extracellular parasites, background-subtracted, relative to zaprinast alone
# Settings: 100 uM zaprinast stimulation; 10 min pretreatment; mean of two replicates; 0.23 h
# In short: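 Extracellular GCaMP5-expressing parasites in Ringer's solution were pretreated with compounds (single 10 μM dose, two biological replicates) for 10 min, then stimulated with 100 μM zaprinast at 37 °C for 4 min. Fluorescence read at 485/525 nm, basal subtracted, expressed as fold change relative to zaprinast-only parasites.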
row,Compound,fold change in fluorescence relative to zaprinast alone
1,Fc1ccc(-c2ncn(CCCN3CCOCC3)c2-c2ccccn2)cc1 [SB-211742],1.072
2,Fc1ccc(-c2ncn(CCCN3CCOCC3)c2-c2cccnc2)cc1 [SB-211743],1.228
3,Nc1nccc(-c2c(-c3ccc(F)cc3)ncn2CCCN2CCOCC2)n1 [SB-216385],1.045
4,CSc1nccc(-c2c(-c3ccc(F)cc3)ncn2CCCN2CCOCC2)n1 [SB-217146-A],0.6021
5,Fc1ccc(-c2nc[nH]c2-c2ccncc2)cc1 [SB-217360],0.1031
6,FC(F)(F)c1ccc(-c2ncn(CCCN3CCOCC3)c2-c2ccncc2)cc1 [SB-217780],0.91
7,CCOC(=O)N1CCC(n2cnc(-c3ccc(F)cc3)c2-c2ccnc(N)n2)CC1 [SB-219952],0.8316
8,Nc1nccc(-c2c(-c3ccc(F)cc3)ncn2C2CCN(Cc3ccccc3)CC2)n1 [SB-219980],0.5084
9,Nc1nccc(-c2c(-c3ccc(F)cc3)ncn2C2CCNCC2)n1 [SB-220025-R],1.112
10,CC1(C)CC(n2cnc(-c3ccc(F)cc3)c2-c2ccnc(N)n2)CC(C)(C)N1 [SB-221466],1.33
11,CNc1nccc(-c2c(-c3ccc(F)cc3)ncn2CCCN2CCOCC2)n1 [SB-222516],0.95
12,Cc1cc(-c2c(-c3ccc(F)cc3)ncn2CCCN2CCOCC2)nc(N)n1 [SB-222517],1.044
13,CNc1nccc(-c2c(-c3ccc(F)cc3)ncn2C2CCN(C)CC2)n1 [SB-222903],0.211
14,CC(C)N1CCC(n2cnc(-c3ccc(F)cc3)c2-c2ccnc(N)n2)CC1 [SB-223132],0.4026
15,Nc1nccc(-c2c(-c3ccc(F)cc3)ncn2C2CCC(O)CC2)n1 (stereo not drawn) [SB-223133],0.9972
16,CCNc1nccc(-c2c(-c3ccc(F)cc3)ncn2C2CCN(C)CC2)n1 [SB-226605],0.6067
17,CN1CCC(n2cnc(-c3ccc(F)cc3)c2-c2ccnc(NCCO)n2)CC1 [SB-226879],1.236
18,CN1CCC(n2cnc(-c3ccc(F)cc3)c2-c2ccnc(NC3CCNCC3)n2)CC1 [SB-229482],0.6668
19,Nc1nccc(-c2c(-c3ccc(F)cc3)ncn2C2CCN(CC(F)(F)F)CC2)n1 [SB-236560],0.7968
20,CN1CCC(n2cnc(-c3ccc(F)cc3)c2-c2ccnc(Nc3ccccc3)n2)CC1 [SB-236687],1.382
21,Fc1ccc(-c2ncn(C3CCNCC3)c2-c2ccnc(Nc3ccccc3)n2)cc1 [SB-238039-R],0.4937
22,NC(=O)c1ccc(Oc2nccc(-c3c(-c4ccc(F)cc4)ncn3C3CCNCC3)n2)cc1 [SB-242718],1.27
23,CCc1ccc(Oc2nccc(-c3c(-c4ccc(F)cc4)ncn3C3CCNCC3)n2)cc1 [SB-242719],1.455
24,Fc1ccc(-c2ncn(C3CCNCC3)c2-c2ccnc(Oc3ccc(-c4ccccc4)cc3)n2)cc1 [SB-245391],1.215

row,Compound,fold change in fluorescence relative to zaprinast alone
1,CCOc1nccc(-c2c(-c3ccc(F)cc3)ncn2C2CCNCC2)n1 [SB-249175],0.6135
2,Fc1ccc(-c2ncn(C3CCNCC3)c2-c2ccnc(Oc3ccc4c(c3)OCO4)n2)cc1 [SB-250715],1.074
3,Fc1ccc(-c2ncn(C3CCNCC3)c2-c2ccnc(Oc3ccc(F)c(F)c3)n2)cc1 [SB-253228],1.173
4,NC(=O)Cc1ccccc1Oc1nccc(-c2c(-c3ccc(F)cc3)ncn2C2CCNCC2)n1 [SB-264865],1.313
5,COc1nccc(-c2c(-c3ccc(F)cc3)ncn2CCCN2CCOCC2)n1 [SB-282852],0.8251
6,CN1C(=O)C(Nc2ccccc2)=C(c2ccccc2)C1=O [SB-300079],0.899
7,O=C1NC(=O)C(c2ccc(Cl)cc2)=C1Nc1cccc(Cl)c1 [SB-317651],0.9895
8,CSc1ccc(NC2=C(c3ccc(Cl)cc3)C(=O)NC2=O)cc1 [SB-317658],0.971
9,CN(C1=C(c2ccccc2)C(=O)NC1=O)c1ccccc1 [SB-334860],0.8099
10,COc1cccc(C2=C(N(C)c3ccccc3)C(=O)NC2=O)c1 [SB-334865],0.953
11,O=C1NC(=O)C(c2ccc(Cl)cc2)=C1Nc1ccc(O)cc1 [SB-340867],1.192
12,COc1cccc(C2=C(Nc3cccc(Cl)c3)C(=O)NC2=O)c1 [SB-341556],1.087
13,O=C1NC(=O)C(c2ccccc2Cl)=C1Nc1cccc(Cl)c1 [SB-342409],0.95
14,CSc1ccc(NC2=C(c3ccccc3Cl)C(=O)NC2=O)cc1 [SB-342411],0.8828
15,N#Cc1c(NC(=O)c2ccc(F)cc2)sc2c1CCCC2 [SB-347804],1.012
16,COc1ccc(C2=C(N3CCc4ccccc43)C(=O)NC2=O)cc1 [SB-361058],1.153
17,O=C1NC(=O)C(N2CCc3ccccc32)=C1c1ccccc1Cl [SB-373598],1.071
18,COc1ccccc1C1=C(Nc2cccc(O)c2)C(=O)NC1=O [SB-381891],0.9532
19,O=C1NC(=O)C(c2ccccc2Cl)=C1Nc1cccc(O)c1 [SB-390527],1.108
20,O=C1NC(=O)C(c2ccccc2)=C1Nc1cccc(O)c1 [SB-390534],0.8317
21,COc1ccc(C2=C(Nc3cccc(C(=O)O)c3)C(=O)NC2=O)cc1 [SB-390765],0.6431
22,COc1ccc(C2=C(Nc3cccc(O)c3)C(=O)NC2=O)cc1 [SB-390766],1.133
23,COc1cccc(C2=C(Nc3cc(Cl)c(O)c(Cl)c3)C(=O)NC2=O)c1 [SB-390767],1.06
24,COc1cccc(C2=C(Nc3ccc(Cl)c(C(=O)O)c3)C(=O)NC2=O)c1 [SB-390769],1.176

row,Compound,fold change in fluorescence relative to zaprinast alone
1,COc1cccc(C2=C(Nc3cccc(C(=O)O)c3)C(=O)NC2=O)c1 [SB-390770],0.98
2,COc1cccc(C2=C(Nc3cccc(O)c3)C(=O)NC2=O)c1 [SB-390771],0.8334
3,c1ccc(-c2nc3n(c2-c2ccc4c(c2)OCO4)CCC3)nc1 [SB-400868-A],0.8655
4,CN1C(=O)C(Nc2ccc(Cl)c(C(=O)O)c2)=C(c2ccc(Cl)cc2)C1=O [SB-404290],0.783
5,CN1C(=O)C(Nc2cc(Cl)c(O)c(Cl)c2)=C(c2ccc(Cl)cc2)C1=O [SB-404321],1.253
6,O=C1NC(=O)C(N2CCc3ccccc32)=C1c1cccc(Cl)c1 [SB-408010],0.7986
7,O=C1NC(=O)C(c2cccc(Cl)c2)=C1Nc1ccc(Cl)c(C(=O)O)c1 [SB-409513],1.123
8,O=C1NC(=O)C(c2cccc(Cl)c2)=C1Nc1ccc(O)c(Cl)c1 [SB-409514],1.132
9,Oc1ccc(-c2nc(-c3ccccc3)[nH]c2-c2ccncc2)cc1 [SB-428218-A],1.23
10,OCc1ccc(-c2nc(-c3ccc4c(c3)OCO4)c(-c3ccccn3)[nH]2)cc1 [SB-431533],1.145
11,NC(=O)c1ccc(-c2nc(-c3ccccn3)c(-c3ccc4c(c3)OCO4)[nH]2)cc1 [SB-431542-A],1.08
12,COc1ccc2cc(-c3c(-c4ccncc4)nc(-c4ccc([S+](C)[O-])cc4)n3C)ccc2c1 (stereo not drawn) [SB-437013],1.038
13,NCc1ccc(-c2nc(-c3ccc(Cl)c(O)c3)c(-c3ccncc3)[nH]2)cc1 [SB-476429-A],1.226
14,Nc1[nH]nc2ncc(-c3ccccc3)cc12 [SB-517081],0.8708
15,Nc1n[nH]c2nnc(-c3ccccc3)cc12 [SB-517389],1.055
16,CC(=O)Nc1[nH]nc2ncc(-c3ccccc3)cc12 [SB-548492],1.137
17,COc1ccc(-c2oc3ncnc(N)c3c2-c2ccc(OC)cc2)cc1 [SB-589132],1.026
18,CCN(CC)CCOc1ccc(Nc2ncc3cc(-c4c(Cl)cccc4Cl)c(=O)n(C)c3n2)cc1 [SB-601273],0.7002
19,CCCC(=O)Nc1[nH]nc2ncccc12 [SB-601436],0.9225
20,COc1cccc(-c2nc(-c3ccccc3)[nH]c2-c2ccncc2)c1 [SB-610250],0.7579
21,Oc1cccc(-c2nc(-c3ccccc3)[nH]c2-c2ccncc2)c1 [SB-610251-B],1.022
22,ON=C1CCc2cc(-c3nc(C4CCNCC4)[nH]c3-c3ccncc3)ccc21 [SB-614067-R],1.048
23,COc1ccc2cc(-c3c(-c4ccncc4)nc(-c4ccc(SC)cc4C)n3C)ccc2c1 [SB-625086-M],0.941
24,CN(C)CCCC(=O)Nc1n[nH]c2nnc(-c3ccccc3)cc12 [SB-627772-A],1.028
